pEC50: −log10 of the molar value. Read-outs that look alike come from different tables or passages of the source. Where only a bound is given, the exact number is not on record here.

The test system of one data set is SKOV3/ELP cells. Description: EC50 assay of small molecule activated γδ T cells to kill SKOV3/ELP tumor cells. The data set is classed as cell-based. The settings on record: γδT cells + SKOV3/ELP, E:T=2:1, co-culture 20 hours, 0.05-100 nM, read-out: SKOV3 killing (EC50). Here is the method: γδT cells and SKOV3/ELP tumor cell lines were expanded and cultured in vitro. The SKOV3/ELP cells were digested, and the cells were counted and resuspended in MC5A complete medium, the density of the cell suspension was adjusted and added into a 96-well plate at 5×10^3 cells/100 […]/well for overnight incubation. On the next day, the test compound and the control compound were diluted at a 3-fold ratio with DMSO, and 4 μL of the diluted compound was added to 96 μL of culture medium for 25-fold dilution. 5 μL of 25-fold diluted compound was transferred to the corresponding well which had been plated with tumor cells, and the actual detection concentration was in the range of 0.05-100 nM. γδT cells were resuspended in γδT complete medium, and the density of the cell suspension was adjusted according to the effector-target ratio of E:T=2:1, and then the cell was added to the corresponding well at 1×10^4 cells/100 μL/well. After co-culture at 37° C., 5% CO2 for 20 hours, the cells were centrifuged. […] After standing for 18 minutes in the dark, the signal of chemiluminescence was detected. The EC50 value was calculated by four-parameter fitting, with the corresponding signal value of the well with only tumor cells as the minimum killing value, and the corresponding value of the well without tumor cells as the maximum killing value.

Data set [1] is described as follows: Stability experiment of compounds in human whole blood. It is filed as in vitro ADME. Particulars: 37° C., 0-4 h. The protocol: • (1) An appropriate amount of blank whole blood was added into an EP tube containing sodium heparin, then added the working solution of the test substance to a final concentration of 1 μM, and mixed by vortex; • (2) The sample was placed in a water bath at 37° C. with two parallel experiments; for one experiment, the time points were 0 h, 0.5 h, 1 h, 2 h, and 4 h; another experiment was performed to obtain the absolute zero point, which was compared with the 0 h point. • (3) An appropriate amount of sample was taken out from the incubation system, to which 300 μL of internal standard precipitant was added for protein precipitation; (4) all samples were centrifuged at 6° C. for 10 min (15700×g). • (5) 150 μL of the supernatant was taken out, to which 150 μL of water was added, which was mixed by vortex, and analyzed by LC-MS/MS. The stability data of compounds in human whole blood is as follows: […]

In another data set the test system is human plasma protein. The experiment in a line: Binding rate test of compounds and human plasma protein (equilibrium dialysis). Particulars: 1 μM, equilibrium dialysis 6 hours, 37° C. The data set is classed as in vitro ADME. A digest of the protocol:
(§1)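 Equilibrium dialysis of compound at 1 μM final in human plasma against 100 mM phosphate buffer with 0.002% Tween 80, shaken 6 hours at 37° C. Both sides quantified after acetonitrile/internal-standard precipitation. Binding calculated as 1 − free fraction, where free fraction = buffer/plasma concentration ratio.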
Background: In equilibrium dialysis only unbound substance equilibrates across the membrane.

The nature of data set [2]: Pharmacokinetic test in cynomolgus monkeys. The settings on record: IV 2 mg/kg. It is filed as in vivo. Here is the method:
The control compound 2 and compound 19 were formulated into 1 mg/mL solution in 10% DMSO/90% PBS. Cynomolgus monkeys were obtained from Suzhou Leo Bio Technology Co., Ltd. The control compound 2 and compound 19 were administered intravenously at 2 mg/kg, respectively. The blood collected before administration was recorded as zero point. Then 1 mL of blood was collected at eight time points: 0.083, 0.15, 0.5, 1.0 2.0, 4.0, 8.0, and 24.0, respectively. 1 mL of the collected whole blood was placed in a labeled EDTA-2K anticoagulant tube. After gently inverting up and down to fully mix the anticoagulant (EDTA-2K) with the blood, it was immediately placed in wet ice and centrifuged within 30 minutes to separate the plasma. The centrifugation conditions were set to 4° C., 2200 g, and 6 min. The plasma separated after centrifugation was placed in a labeled EP tube, and the content of compound 19 and control compound 2 in the plasma samples at different time points were detected and analyzed. There were 3 male cynomolgus monkeys in each group.

Data set [3] can be described thus: Binding rate test of compounds and human plasma protein (equilibrium dialysis). It is filed as in vitro ADME. Particulars: human plasma, equilibrium dialysis 6 hours, 37° C. The essentials:
as §1

Turning to `C/C(=C\CC[P@@](=O)(N[C@@H](C)C(=O)O[C@@H]1CCOC1)Oc1ccccc1)CO` [Compound 19, (R)-tetrahydrofuran-3-yl ((S)-((R)-5-hydroxy-4-methylpent-3-en-1-yl)(phenoxy)phosphoryl)-L-alaninate], the pEC50 (commonly the EC50 on a negative log10 scale, so that one unit is a factor of ten) with SKOV3/ELP cells is 9.33. Further, in data set [1] (1 μM), the “T1/2 in human whole blood” value is >8 h. Moreover, the “human plasma protein binding rate” value with human plasma protein is 64.6%. Moreover, the “Plasma concentration of the unchanged drug” value in data set [2] (5 min) is 1370 ng/mL; in data set [2] (9 min) it was 878 ng/mL; in data set [2] (30 min), 139 ng/mL; in data set [2] (1 h) it was 12 ng/mL. The “AUC0-t (AUClast)” value in data set [2] (average) amounted to 426 ng·h/mL. This compound also gave an AUC0-t/AUC0-inf in data set [2] (average) of 0.959. Also, in data set [2] (average), the “Cl (Cl_obs)” value is on record as 76.3 mL/min/kg.
As to `C/C(=C\CCP(=O)(N[C@@H](C)C(=O)OC(C)C)Oc1ccccc1)CO` (stereo partly drawn) [Control compound 1, Isopropyl (((E)-5-hydroxy-4-methylpent-3-en-1-yl)(phenoxy)phosphoryl)-L-alaninate, reference compound], in the data set on SKOV3/ELP cells (Homo sapiens, SK-OV-3), the pEC50 was 8.94. For the same compound, the half-life at 1 μM in data set [1] (whole blood (sodium heparin), read-out: T1/2 in human whole blood (converted)) was > 8 h. Besides, in data set [3], the fraction unbound (commonly free concentration divided by total concentration) at 6 h, 1 μM is 0.073.
